Laboratory results as given in patent US10800772B2 (Gilead Sciences, Inc., priority 2016, dated 2020).
Read-outs that look alike come from different tables or passages of the source.

Experiments:
Type in all cases: cell-based, HIV-1
HIV-IIIb IN T174I BT = test: Antiviral assay in MT4 cells, HIV-IIIb IN T174I BT virus (from viral breakthrough)
Procedure, shortened: (§1)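 Each EC50 is the compound concentration that reduced CellTiter-Glo luminescence by 50% after 5 days of culture of HIV-IIIb-infected MT4 cells. Infection was at 0.004 m.o.i. with 3 h pre-incubation. Testing used 10 concentrations in quadruplicate.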

HIV-IIIb IN T174I DE = test: Antiviral assay in MT4 cells, HIV-IIIb IN T174I DE virus (from dose escalation passaging)
Procedure, shortened: as §1

HIV-IIIb (wildtype) = test: Antiviral assay in MT4 cells, HIV-IIIb wildtype; settings: read-out: WT EC50
Procedure, shortened: as §1

[1] = Human immunodeficiency virus 1, IIIB, MT4, 120 h, read-out: T174I BT EC50, MT4 cells, HIV-IIIb IN T174I BT (viral breakthrough), 5 days, CellTiter-Glo
[2] = Human immunodeficiency virus 1, IIIB, MT4, 120 h, read-out: T174I DE EC50, MT4 cells, HIV-IIIb IN T174I DE (dose escalation), 5 days, CellTiter-Glo
[3] = Human immunodeficiency virus 1, IIIB, MT4, 120 h

Compound	EC50 (HIV-IIIb IN T174I BT; [1]) [nM]	EC50 (HIV-IIIb IN T174I DE; [2]) [nM]	EC50 (HIV-IIIb (wildtype); [3]) [nM]	EC50 (HIV-IIIb (wildtype); Human immunodeficiency virus 1, 120 h, MT4 cells, HIV-IIIb wildtype, 5 days, CellTiter-Glo) [nM]	EC50 (HIV-IIIb IN T174I BT; MT4 cells, HIV-IIIb IN T174I BT (viral breakthrough), 5 days, CellTiter-Glo, read-out: T174I BT EC50) [nM]	EC50 (HIV-IIIb IN T174I DE; MT4 cells, HIV-IIIb IN T174I DE (dose escalation), 5 days, CellTiter-Glo, read-out: T174I DE EC50) [nM]	EC50 (HIV-IIIb (wildtype); MT4 cells, HIV-IIIb wildtype, 5 days, CellTiter-Glo) [nM]
Cc1cc2nc(-c3ccc4c(c3)c(C3CCN(C5COC5)CC3)nn4CC(F)(F)F)sc2c(-c2ccc(Cl)cc2)c1[C@H](OC(C)(C)C)C(=O)O [Compound 41, (S)-2-(tert-butoxy)-2-(7-(4-chlorophenyl)-5-methyl-2-(3-(1-(oxetan-3-yl)piperidin-4-yl)-1-(2,2,2-trifluoroethyl)-1H-indazol-5-yl)benzo[d]thiazol-6-yl)acetic acid]	4980	5310	3830				
CCn1nc(C2CCN(C3COC3)CC2)c2cc(-c3nc4cc(C)c([C@H](OC(C)(C)C)C(=O)O)c(-c5ccc(Cl)cc5)c4s3)ccc21 [Compound 35, (S)-2-(tert-butoxy)-2-(7-(4-chlorophenyl)-2-(1-ethyl-3-(1-(oxetan-3-yl)piperidin-4-yl)-1H-indazol-5-yl)-5-methylbenzo[d]thiazol-6-yl)acetic acid]	84	238	4				
Cc1cc2nc(-c3cnc4c(c3)c(N3CCN(C)CC3)cn4C)sc2c(-c2ccc(Cl)cc2)c1[C@H](OC(C)(C)C)C(=O)O [Compound 107, (S)-2-(tert-butoxy)-2-(7-(4-chlorophenyl)-5-methyl-2-(1-methyl-3-(4-methylpiperazin-1-yl)-1H-pyrrolo[2,3-b]pyridin-5-yl)benzo[d]thiazol-6-yl)acetic acid]	1110	2360	23				
COC(=O)N1CC[C@H]1CN1CCC(c2nn(C)c3ccc(-c4nc5cc(C)c([C@H](OC(C)(C)C)C(=O)O)c(-c6ccc(Cl)cc6)c5s4)cc23)CC1 [Compound 150, (S)-2-(tert-butoxy)-2-(7-(4-chloro-phenyl)-2-(3-(1-(((S)-1-(methoxy-carbonyl)azetidin-2-yl)methyl)piperidin-4-yl)-1-methyl-1H-indazol-5-yl)-5-methyl-benzo[d]thiazol-6-yl)acetic acid]	214	182	4				
COC(=O)N1CC(N2CCC(c3nn(C)c4ccc(-c5nc6cc(C)c([C@H](OC(C)(C)C)C(=O)O)c(-c7ccc(Cl)cc7)c6s5)cc34)CC2)C1 [Compound 153, (S)-2-(tert-butoxy)-2-(7-(4-chloro-phenyl)-2-(3-(1-(1-(methoxycarbonyl)azetidin-3-yl)piperidin-4-yl)-1-methyl-1H-indazol-5-yl)-5-methyl-benzo[d]thiazol-6-yl)acetic acid]	159	217	11				
[2H]C([2H])([2H])n1nc(C2CCN(C3CN(C(C)=O)C3)CC2)c2nc(-c3nc4cc(C)c([C@H](OC(C)(C)C)C(=O)O)c(-c5ccc(Cl)cc5)c4s3)ccc21 [Compound 192, (S)-2-(2-(3-(1-(1-acetylazetidin-3-yl)piperidin-4-yl)-1-(methyl-d3)-1H-pyrazolo [4,3-b]pyridin-5-yl)-7-(4-chloro-phenyl)-5-methylbenzo[d]thiazol-6-yl)-2-(tert-butoxy) acetic acid]	28	55	1				
Cc1cc2nc(-c3ccc4c(c3)c(C3CCN(C5CCC5)CC3)nn4C)sc2c(-c2ccc(Cl)cc2)c1[C@H](OC(C)(C)C)C(=O)O [Compound 129, (S)-2-(tert-butoxy)-2-(7-(4-chloro-phenyl)-2-(3-(1-cyclobutylpiperidin-4-yl)-1-methyl-1H-indazol-5-yl)-5-methylbenzo[d]thiazol-6-yl) acetic acid]	509	696		5			
(S)-2-(tert-butoxy)- 2-(7-(4-chloro- phenyl)-2-(3-(1- ((S)-1-(methoxy- carbonyl) pyrrolidin- 3-yl)piperidin-4- yl)-1-methyl-1H- pyrrolo[2,3-b] pyridin-5-yl)-5- methylbenzo[d] thiazol-6-yl) acetic acid [Compound 202]					157	680	7
